Reference: paper PMC4905667, “Discovery of Small-Molecule Modulators of the Human Y4 Receptor” (PLoS ONE, 2016)
Where two headings read alike, the source gives them in different places. Values belong to the compound of their own block, whether it stands above or below them. No end group written: not given here.

Legend:
human Y4R = biological target: T1, human Y4R (Homo sapiens, UniProt P50391); assay: Inositol phosphate (IP3) accumulation assay, Y4R stimulated with PP; type: cell-based; conditions: for IP accumulation following stimulation of Y4R (DMSO set to 100%): 10 μM compound, 1 nM PP, COS-7 cells with Δ6Gαqi4myr, mean ± SEM, n = 2; for Effect of compound on potency (pEC50) of PP at Y4R (in words): 30 μM compound vs DMSO, full PP concentration-response; for EC50 / Y4R PAM activity, potentiation of a PP EC20 response (in words): IP accumulation; for EC50: three independent experiments in duplicate; for Y4R PAM activity, potentiation of a PP EC20 response (in words): concentration-dependent
T1 construct: expressed in transfected cells
T1 sequence (P50391 whole entry): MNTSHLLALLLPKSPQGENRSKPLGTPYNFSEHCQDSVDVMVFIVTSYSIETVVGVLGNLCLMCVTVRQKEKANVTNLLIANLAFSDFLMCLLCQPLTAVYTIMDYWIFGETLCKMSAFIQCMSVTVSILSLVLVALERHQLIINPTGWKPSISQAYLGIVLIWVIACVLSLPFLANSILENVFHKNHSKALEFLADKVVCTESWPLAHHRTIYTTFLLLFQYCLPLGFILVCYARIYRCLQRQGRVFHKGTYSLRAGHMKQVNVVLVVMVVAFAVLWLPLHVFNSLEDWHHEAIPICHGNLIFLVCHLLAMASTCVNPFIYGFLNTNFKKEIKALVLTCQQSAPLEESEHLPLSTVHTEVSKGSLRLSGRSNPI
Description: (§1) COS-7 cells stably expressing hY1/2/4/5R_eYFP fusion protein and the Δ6Gαqi4myr chimeric Gα-protein were prepared as previously described. The hY1/2/4/5R_eYFP cDNA was subcloned into MCS1 of a pVitro2-MCS vector carrying a hygromycin resistance gene; the Δ6Gαqi4myr cDNA was subcloned into MCS1 of a pVitro2-MCS vector carrying a G418 resistance gene (Invivogen, San Diego, CA).
(§2) COS-7 (African Green Monkey kidney) cells stably expressing the hY1/2/4/5R_eYFP fusion protein and the Δ6Gαqi4myr chimeric Gα-protein were cultured at 37°C in high glucose Dulbecco’s Modified Eagle Medium (DMEM, Life Technologies, Carlsbad, CA) with glutamine and sodium pyruvate (Life Technologies/Lonza) supplemented with 10% (w/v) FBS (Invitrogen, Carlsbad, CA), 1.5 mg/mL G418-sulfate (Amresco, Solon, OH) and 133 μg/ml hygromycin (Invivogen).
(§3) Cells were seeded into 48-well plates and incubated for 24 hours at 37°C / 5% CO2. Afterwards, cells were labeled for at least 16 hours in DMEM+10% (w/v) FBS containing 2 μCi/ml myo-[2- ^3H(N)]-inositol (PerkinElmer) at 37°C / 5% CO2. Labeling solution was aspirated and cells were washed with 20 μL/well DMEM + 10 mM LiCl (Sigma-Aldrich; DMEM/LiCl) and stimulated with the peptide solutions and compounds. Specifically, 50 μl/well DMEM/LiCl were added after washing, followed by addition of 50 μl/well test compound in DMEM/LiCl (3-fold over the final concentration) and addition of 50 μl/well peptide solution (3-fold over the final concentration) in DMEM/LiCl. Stimulation was performed for 2 hours at 37°C / 5% CO2. Cell lysis, subsequent sample preparation and radiometric detection was performed as described previously.
(§4) Data analysis was performed with GraphPad Prism 5.03 software (GraphPad Software, San Diego, CA). Calculation of EC50 and pEC50 was performed using standard non-linear regression (log(agonist) vs. response, three parameters). All data were normalized to the corresponding control curve in the absence of the modulator. Final concentration response curves were created by calculating the mean and SEM of all individual experiments for each data point. Statistical evaluation was performed using two-way ANOVA and Bonferroni post test with * P ≤ 0.05, ** P ≤ 0.01, *** P ≤ 0.001.
(§5) Until now, no small molecule agonists of Y receptors have been described. Based on this lack of any structure activity data, identification of Y4R PAMs was initiated with a Ca^2+-flux-based HTS approach. An initial pilot screen was performed with the ‘Spectrum collection’, a small scale library with 2000 compounds comprising synthetic small molecules as well as purified natural products covering a range of known biologically active properties. This pilot screen yielded 65 putative PAMs. All initial hits were retested for off-target effects in wildtype COS-7 cells and the PAM effect was validated via concentration-dependent potentiation of a submaximal PP response. After eliminating structures that show off-target effects, seven compounds with potencies in the micromolar range were identified (S1 Fig) for further investigation. Validation of the Y4R PAM activity was performed with a well-established assay system for Y receptor activation studies, based on cellular accumulation of inositol phosphate. Furthermore, the compound activity at Y1R, Y2R and Y5R was examined at this stage of Y4R PAM identification. Therefore, Y receptor activation with an agonist ligand concentration causing a submaximal response (1 nM, Fig 1) was monitored in presence and absence of test compound. This experimental setup allows the detection of potential compound-induced shifts of the concentration-response curve and parallel testing of all compounds on all Y receptor subtypes. […]

human Y1R = system: T2, human Y1R; assay: Inositol phosphate (IP3) accumulation assay, Y1R stimulated with NPY; type: cell-based; conditions: for Effect of compound on potency (pEC50) of NPY at Y1R (in words): 30 μM compound vs DMSO, full NPY concentration-response
T2 construct: expressed in transfected cells
Description: as §1, §2, §3, §4, §5

human Y5R = system: T3, human Y5R; assay: Inositol phosphate (IP3) accumulation assay, Y5R stimulated with NPY; type: cell-based; conditions: for Effect of compound on potency (pEC50) of NPY at Y5R (in words): 30 μM compound vs DMSO, full NPY concentration-response
T3 construct: expressed in transfected cells
Description: as §1, §2, §3, §4
as §5, with “Furthermore, the compound activity at Y1R, Y2R and Y5R was examined at this stage of Y4R PAM identification.” left out, “compound.” for “compound. This experimental setup allows the detection of potential compound-induced shifts of the concentration-response curve and parallel testing of all compounds on all Y receptor subtypes.”

human Y2R = system: T4, human Y2R; assay: Inositol phosphate (IP3) accumulation assay, Y2R stimulated with NPY; type: cell-based; conditions: for Effect of compound on potency (pEC50) of NPY at Y2R (in words): 30 μM compound vs DMSO, full NPY concentration-response
T4 construct: expressed in transfected cells
Description: as §1, §2, §3, §4, §5

Y4R = system: T5, Y4R; assay: HTS calcium flux assay; type: cell-based, human; conditions: Ca2+ flux, COS-7 hY4R_eYFP Δ6Gαqi4myr
T5 construct: expressed in transfected cells
Description: as §1, §2
The purities of compounds in the Vanderbilt HTS facility are more than 95% as confirmed by the supplier. A total of 35,288 compounds were tested for their ability to modulate the Y4R activation in conjunction with the Vanderbilt HTS facility. In a pilot HTS experiment, 2000 compounds (spectrum collection, MicroSource Discovery Systems, Inc., Gaylordsville, CT) were screened for modulation of the Y4R. […]

[1] = system: db/db mice and high fat diet induced obesity in mice; design: method as in PMID 25282357; conditions: fed to mice, high nanomolar blood concentrations; cited from earlier work
[2] = HPLC analysis of stability in DMEM assay conditions; type: physicochemical; conditions: pre-incubated in DMEM for 2 hours at 37°C
Description: Supplementary file pone.0157146.s003.png: S3 Fig HPLC analysis of VU0118748 stability in DMEM assay conditions. […] To test the stability of VU0118748 in the assay conditions, the compound was pre-incubated in DMEM for 2 hours at 37°C. […] (PNG) Click here for additional data file.

[3] = read-out: EC50, potentiation of a PP EC20 response at Y4R
[4] = read-out: pEC50 ± SEM, potentiation of a PP EC20 response at Y4R (converted)
[5] = 10 μM compound, 1 nM NPY, mean ± SEM, n = 2

Compound: Nc1ncnc2c1ncn2[C@@H]1O[C@H](CO)[C@@H](O)[C@H]1O [adenosine, reference compound]
- IP accumulation following stimulation of Y4R (DMSO set to 100%) (human Y4R): 120 ± 11%
- Effect on Y1R signal transduction (in words) (human Y1R; 10 μM compound, 1 nM NPY): slightly decrease
- Effect on Y5R signal transduction (in words) (human Y5R; 10 μM compound, 1 nM NPY): slightly decrease

Compound: pancreatic polypeptide (APLEPVYPGDNATPEQMAQYAADLRRYINMLTRPRY; ends and bridges not checked; UniProt P01298 30-65, looked up) [PP, native peptide ligand of the Y4R]
- PP EC20 (Y4R): 0.055 ± 0.027 nM
- PP EC80 (Y4R): 0.836 ± 0.033 nM

Compound: NCCO.O=C(Nc1ccc([N+](=O)[O-])cc1Cl)c1cc(Cl)ccc1O [ethanolamine salt form of Niclosamide]
- Efficacy on diabetic symptoms (plasma insulin decline, insulin response, high fat diet induced obesity) [1]: efficacious

Compound: O=C(Oc1ccc(Cl)cc1C(=O)Nc1ccc([N+](=O)[O-])cc1Cl)c1ccc([N+](=O)[O-])cc1 [VU0118748]
- Effect of compound on potency (pEC50) of PP at Y4R (in words) (human Y4R): increase the potency of PP
- EC50 (human Y4R; [3]): 473 nM
- EC50 (human Y4R; [4]): 437 nM
- Effect of compound on potency (pEC50) of NPY at Y1R (in words) (human Y1R): no effect
- Effect of compound on potency (pEC50) of NPY at Y5R (in words) (human Y5R): negative allosteric effect
- Compound still intact [2]: 95%

Compound: O=C(Nc1ccc([N+](=O)[O-])cc1Cl)c1cc(Cl)ccc1O [Niclosamide, reference compound]
- IP accumulation following stimulation of Y4R (DMSO set to 100%) (human Y4R): 185.7 ± 23.5%
- Effect of compound on potency (pEC50) of PP at Y4R (in words) (human Y4R): increase the potency of PP
- EC50 (human Y4R; [3]): 620 nM
- Increase in the potency of PP at Y4R (EC50 shift) (human Y4R; in presence of compound): 4 fold
- IP accumulation following stimulation of Y1R (DMSO set to 100%) (human Y1R; [5]): 125.4 ± 14.6%
- Effect of compound on potency (pEC50) of NPY at Y1R (in words) (human Y1R): small PAM effect
- IP accumulation following stimulation of Y2R (DMSO set to 100%) (human Y2R; [5]): 88.5 ± 6.2%
- Effect of compound on potency (pEC50) of NPY at Y2R (in words) (human Y2R): no effect
- IP accumulation following stimulation of Y5R (DMSO set to 100%) (human Y5R; [5]): 83.4 ± 5.9%
- Effect of compound on potency (pEC50) of NPY at Y5R (in words) (human Y5R): negative allosteric effect

Compound: COc1ccc(/C=C/C(=O)c2ccc(O)cc2O)cc1OC [VU0244224]
- IP accumulation following stimulation of Y4R (DMSO set to 100%) (human Y4R): 127 ± 19%
- Effect on Y1R signal transduction (in words) (human Y1R; 10 μM compound, 1 nM NPY): no effects
- Effect on Y2R signal transduction (in words) (human Y2R; 10 μM compound, 1 nM NPY): no effects
- Effect on Y5R signal transduction (in words) (human Y5R; 10 μM compound, 1 nM NPY): no effects

Compound: O=C(Nc1ccc([N+](=O)[O-])cc1)c1cc(Br)ccc1O [VU0048913]
- Effect of compound on potency (pEC50) of PP at Y4R (in words) (human Y4R): increase the potency of PP
- EC50 (human Y4R; [3]): 566 nM
- EC50 (human Y4R; [4]): 575 nM
- Effect of compound on potency (pEC50) of NPY at Y1R (in words) (human Y1R): no effect
- Effect of compound on potency (pEC50) of NPY at Y2R (in words) (human Y2R): slight PAM effect

Now from value to compound:

- Effect of compound on potency (pEC50) of PP at Y4R (in words) (human Y4R): increase the potency of PP
- EC50 (human Y4R; [3]): > 10000 nM
- Effect of compound on potency (pEC50) of NPY at Y1R (in words) (human Y1R): no effect
- Effect of compound on potency (pEC50) of NPY at Y2R (in words) (human Y2R): slight PAM effect
Compound: Cc1ccc(NC(=O)c2cc([N+](=O)[O-])ccc2O)cc1 [VU0048992]

- Y4R PAM activity, potentiation of a PP EC20 response (in words) (human Y4R): inactive
Compound: O=C(Nc1ccc([N+](=O)[O-])cc1Cl)c1ccncc1 [VU0357475]

- Y4R PAM activity, potentiation of a PP EC20 response (in words) (human Y4R): inactive
- Effect of compound on potency (pEC50) of NPY at Y2R (in words) (human Y2R): slight PAM effect
Compound: O=C(Nc1cc(C(F)(F)F)ccc1Cl)c1ccc(F)c([N+](=O)[O-])c1 [VU0114795]

- Effect of compound on potency (pEC50) of PP at Y4R (in words) (human Y4R): increase the potency of PP
- EC50 (human Y4R; [3]): > 10000 nM
- Effect of compound on potency (pEC50) of NPY at Y1R (in words) (human Y1R): no effect
Compound: O=C(Nc1ccc(Cl)cc1)c1cc([N+](=O)[O-])ccc1O [VU0049150]
